2 compounds from ChEMBL document CHEMBL5052855, “Method for predicting sensitivity of cancer cell to gpx4 inhibitor” (2021) can be followed below.

For one experiment, the system named is SK-HEP1. Put plainly: Antitumor activity against human SK-HEP1 cells xenografted BALB/c nu mouse assessed as decrease in tumor volume at 100 mg/kg/day, po measured on the 18th day. It is filed as functional, organism-based. The note with it: time 18.0 day. A general note: In xenograft studies the graft and the host belong to different species.
Experiment [1] is described as follows: Antiproliferative activity against ARID1A/1B proficient human OVISE cells after 7 days by Cell-Titer Glo assay. It is filed as functional, cell-based. The note with it: 168 h.

Calls of active or inactive are those of the source. No cut-off for these calls is given here.

As to `Cc1onc(C(=O)N2CCN(C(c3ccc(Cl)cc3)c3ccc(Cl)cc3)CC2)c1[N+](=O)[O-]`, in the experiment with SK-HEP1, the outcome was Active. With `COC(=O)c1ccc([C@H]2c3[nH]c4ccccc4c3C[C@H](C(=O)OC)N2C(=O)CCl)cc1`, in experiment [1], the half-maximal inhibitory concentration (IC50) is less than 3 nM.

Usually IC50 stands for the concentration at which inhibition is half-maximal. Lower therefore signals greater potency.
